Data on 75 compounds can be found in US8013006B2.

For the first assay, the system named is HCV replicon. Briefly: microbe, parasite or virus in culture. It counts as cell-based. To be noted: Hepatitis C virus, 48 h, read-out: Replicon IC5Os.
As for `CCn1c(-c2cccc(NC(=O)Oc3ccc(Cl)cc3)c2)c(C#N)c2ccc(OC)cc21` [Compound 306], the IC50 lay in the range of 500 to 2000 nM.
Turning to `CCn1c(-c2cccc(NC(=O)Oc3ccc(Br)cc3)c2)c(C#N)c2ccc(OC)cc21` [Compound 309], the IC50 fell in the range of 500 to 2000 nM.
As for `CCn1c(-c2cccc(NC(=O)OC(C)C)c2)c(C#N)c2ccc(OC)cc21` [Compound 310], the IC50 fell in the range of 500 to 2000 nM.
In the case of `CCC(C)OC(=O)Nc1cccc(-c2c(C#N)c3ccc(OC)cc3n2CC)c1` (stereo not drawn) [Compound 349], the IC50 was under 500 nM.
Regarding `C#CCOC(=O)Nc1cccc(-c2c(C#N)c3ccc(OC)cc3n2CC)c1` [Compound 350], the IC50 was 500 to 2000 nM.
The same measure, in the same setting: the result for `C=CC(C)OC(=O)Nc1cccc(-c2c(C#N)c3ccc(OC)cc3n2CC)c1` (stereo not drawn) [Compound 351] reads 500 to 2000 nM; that for `CCn1c(-c2cccc(NC(=O)OC)c2)c(C#N)c2ccc(OC)cc21` [Compound 353], under 500 nM.
On to `CCn1c(-c2ccc(NS(C)(=O)=O)cc2)c(C#N)c2ccc(C(F)(F)F)cc21` [Compound 365], for which the IC50 was under 500 nM.
On to `CCCNC(=O)Nc1cccc(-c2c(C#N)c3ccc(OC)cc3n2CC)c1` [Compound 396], for which the IC50 was under 500 nM.
Turning to `CCn1c(-c2cccc(NC(=O)NC(C)C)c2)c(C#N)c2ccc(OC)cc21` [Compound 397], the IC50 was under 500 nM.
Regarding `CCCCNC(=O)Nc1cccc(-c2c(C#N)c3ccc(OC)cc3n2CC)c1` [Compound 398], the IC50 is under 500 nM.
Consider `C=CCNC(=O)Nc1cccc(-c2c(C#N)c3ccc(OC)cc3n2CC)c1` [Compound 399], for which the IC50 was under 500 nM.
For the compound `CCNC(=O)Nc1cccc(-c2c(C#N)c3ccc(OC)cc3n2CC)c1` [Compound 401], the IC50 is under 500 nM.
As to `CCn1c(-c2cccc(NC(=O)Nc3ccc(C(C)C)cc3)c2)c(C#N)c2ccc(OC)cc21` [Compound 403], the IC50 fell in the range of 500 to 2000 nM.
`CCn1c(-c2cccc(NC(=O)Nc3ccccc3C)c2)c(C#N)c2ccc(OC)cc21` [Compound 405]: the IC50 lay in the range of 500 to 2000 nM.
Still for that read-out and setting: next, `CCn1c(-c2cccc(NC(=O)Nc3ccc(Oc4ccccc4)cc3)c2)c(C#N)c2ccc(OC)cc21` [Compound 406]: under 500 nM.

Still in this assay, the particulars now being: Replicon IC50 values are determined by firefly luciferase signal; bicistronic replicon, 2 days; read-out: Replicon IC5Os.
For `CCn1c(-c2cccc(NC(=O)Oc3ccc(OC)cc3)c2)c(C#N)c2ccc(OC)cc21` [Compound 305], the IC50 was over 2000 nM.
Consider `CCn1c(-c2cccc(NC(=O)Oc3ccc(F)cc3)c2)c(C#N)c2ccc(OC)cc21` [Compound 307], for which the IC50 is 500 to 2000 nM.
For `CCn1c(-c2ccc(NC(=O)OCC(C)C)cc2)c(C#N)c2ccc(OC)cc21` [Compound 311], the IC50 is over 2000 nM.
On the same count and under the same terms, the result for `CCCOC(=O)Nc1ccc(-c2c(C#N)c3ccc(OC)cc3n2CC)cc1` [Compound 312] reads over 2000 nM; that for `CCn1c(-c2ccc(NC(=O)OCCOC)cc2)c(C#N)c2ccc(OC)cc21` [Compound 313], over 2000 nM; that for `C=CCOC(=O)Nc1ccc(-c2c(C#N)c3ccc(OC)cc3n2CC)cc1` [Compound 314], over 2000 nM.
Take `CCn1c(-c2ccc(NC(=O)OCCCCl)cc2)c(C#N)c2ccc(OC)cc21` [Compound 315]: the IC50 was over 2000 nM.
With `CCn1c(-c2ccc(NC(=O)OC3C[C@H](C)CC[C@H]3C(C)C)cc2)c(C#N)c2ccc(OC)cc21` (stereo partly drawn) [Compound 316], the IC50 is over 2000 nM.
Turning to `CCn1c(-c2ccc(NC(=O)OCCF)cc2)c(C#N)c2ccc(OC)cc21` [Compound 317], the IC50 is over 2000 nM.
Regarding `CCn1c(-c2ccc(NC(=O)Oc3ccc(Cl)cc3)cc2)c(C#N)c2ccc(OC)cc21` [Compound 318], the IC50 is over 2000 nM.
Turning to `CCn1c(-c2ccc(NC(=O)Oc3ccc(F)cc3)cc2)c(C#N)c2ccc(OC)cc21` [Compound 319], the IC50 was over 2000 nM.
For the compound `CCn1c(-c2ccc(NC(=O)Oc3ccc(C)cc3)cc2)c(C#N)c2ccc(OC)cc21` [Compound 320], the IC50 is over 2000 nM.
As for `CCn1c(-c2cccc(C(=O)NCCCN3CCOCC3)c2)c(C#N)c2ccc(OC)cc21` [Compound 323], the IC50 was over 2000 nM.
Turning to `CCn1c(-c2cccc(NC(=O)CCl)c2)c(C#N)c2ccc(OC)cc21` [Compound 324], the IC50 was over 2000 nM.
On the same count and under the same terms, the result for `CCn1c(-c2cccc(NC(=O)c3ccccc3)c2)c(C#N)c2ccc(OC)cc21` [Compound 326] reads over 2000 nM; that for `CCn1c(-c2cccc(NC(=O)c3ccco3)c2)c(C#N)c2ccc(OC)cc21` [Compound 327], over 2000 nM.
On to `CCn1c(-c2cccc(NC(=O)c3cc(C)on3)c2)c(C#N)c2ccc(OC)cc21` [Compound 328], for which the IC50 is over 2000 nM.
The same measure, in the same setting: next, `CCn1c(-c2cccc(NC(C)=O)c2)c(C#N)c2ccc(OC)cc21` [Compound 329]: over 2000 nM; `CCn1c(-c2cccc(NC(=O)c3ccc4nonc4c3)c2)c(C#N)c2ccc(OC)cc21` [Compound 330]: over 2000 nM.
With `CCn1c(-c2cccs2)c(C#N)c2ccc(OC)cc21` [Compound 337], the IC50 is over 2000 nM.
`CCn1c(-c2cccc3c2oc2ccccc23)c(C#N)c2ccc(OC)cc21` [Compound 338]: the IC50 was over 2000 nM.
The same measure, in the same setting: the result for `CCCn1c(-c2ccc(NS(=O)(=O)CC)cc2)cc2ccc(OC)cc21` [Compound 343] reads over 2000 nM.
`CCn1c(-c2cn(Cc3ccccc3)cn2)c(C#N)c2ccc(OC)cc21` [Compound 347]: the IC50 is over 2000 nM.
As for `CCn1c(-c2cc[nH]n2)c(C#N)c2ccc(OC)cc21` [Compound 348], the IC50 is over 2000 nM.
On to `C#CCCOC(=O)Nc1cccc(-c2c(C#N)c3ccc(OC)cc3n2CC)c1` [Compound 352], for which the IC50 is 500 to 2000 nM.
On the same count and under the same terms, next, `CC#CCOC(=O)Nc1cccc(-c2c(C#N)c3ccc(OC)cc3n2CC)c1` [Compound 354]: 500 to 2000 nM; `CCn1c(-c2cccc(NC(=O)OCCl)c2)c(C#N)c2ccc(OC)cc21` [Compound 355]: over 2000 nM.
The same measure, in the same setting: next, `CCn1c(-c2cccc(NC(=O)OCC(C)(C)C)c2)c(C#N)c2ccc(OC)cc21` [Compound 356]: over 2000 nM; `CCC(C)OC(=O)Nc1ccc(-c2c(C#N)c3ccc(OC)cc3n2CC)cc1` (stereo not drawn) [Compound 357]: over 2000 nM.
With `C#CCOC(=O)Nc1ccc(-c2c(C#N)c3ccc(OC)cc3n2CC)cc1` [Compound 358], the IC50 was over 2000 nM.
On to `C=CC(C)OC(=O)Nc1ccc(-c2c(C#N)c3ccc(OC)cc3n2CC)cc1` (stereo not drawn) [Compound 359], for which the IC50 was over 2000 nM.
Take `C#CCCOC(=O)Nc1ccc(-c2c(C#N)c3ccc(OC)cc3n2CC)cc1` [Compound 360]: the IC50 was over 2000 nM.
For `CCn1c(-c2ccc(S(=O)(=O)NC3CC3)cc2)c(C#N)c2ccc(OC)cc21` [Compound 363], the IC50 is 500 to 2000 nM.
The same measure, in the same setting: next, `CCn1c(-c2ccc(NS(C)(=O)=O)cc2)c(C#N)c2ccccc21` [Compound 371]: over 2000 nM; `CCOC(=O)Nc1ccc(-c2c(C#N)c3ccccc3n2CC)cc1` [Compound 372]: 500 to 2000 nM; `CCn1c(-c2cccc(S(N)(=O)=O)c2)c(C#N)c2ccc(OC)cc21` [Compound 373]: over 2000 nM.
Still for that read-out and setting: next, `CCCNS(=O)(=O)c1ccc(-c2c(C#N)c3ccc(OC)cc3n2CC)cc1` [Compound 374]: over 2000 nM.
For `CCn1c(-c2cccc(N)c2)c(C#N)c2ccc(O)cc21` [Compound 376], the IC50 was over 2000 nM.
In the case of `CCn1c(-c2ccc(C(=O)N3CCCNCC3)cc2)c(C#N)c2ccc(OC)cc21` [Compound 377], the IC50 is over 2000 nM.
For the compound `CCn1c(-c2ccc(C(=O)Nc3ccc(Cl)c(Cl)c3)cc2)c(C#N)c2ccc(OC)cc21` [Compound 380], the IC50 is over 2000 nM.
Take `CCn1c(-c2ccc(C(=O)Nc3ccc(C)cc3)cc2)c(C#N)c2ccc(OC)cc21` [Compound 381]: the IC50 is over 2000 nM.
Turning to `CCn1c(-c2ccc(C(=O)Nc3ccc(Cl)cc3)cc2)c(C#N)c2ccc(OC)cc21` [Compound 382], the IC50 lay in the range of 500 to 2000 nM.
With `CCn1c(-c2cccc(NC(=O)C(C)C)c2)c(C#N)c2ccc(OC)cc21` [Compound 383], the IC50 is over 2000 nM.
With `CCn1c(-c2ccc(C(=O)NC(C)C)cc2)c(C#N)c2ccc(OC)cc21` [Compound 385], the IC50 lay within 500 to 2000 nM.
The same measure, in the same setting: the result for `CCn1c(-c2ccc(C(=O)NC3CC3)cc2)c(C#N)c2ccc(OC)cc21` [Compound 386] reads over 2000 nM; that for `CCn1c(-c2ccc(C(=O)N3CCC3)cc2)c(C#N)c2ccc(OC)cc21` [Compound 387], over 2000 nM.
In the case of `CCn1c(-c2ccc(C(=O)NCCO)cc2)c(C#N)c2ccc(OC)cc21` [Compound 388], the IC50 was over 2000 nM.
As to `CCn1c(-c2ccc(C(=O)NCCCN3CCOCC3)cc2)c(C#N)c2ccc(OC)cc21` [Compound 389], the IC50 is over 2000 nM.
In the case of `CCn1c(-c2ccc(C(=O)Nc3ccccc3)cc2)c(C#N)c2ccc(OC)cc21` [Compound 390], the IC50 is over 2000 nM.
As to `CCn1c(-c2ccc(C(=O)Nc3ccc(OC)c(OC)c3)cc2)c(C#N)c2ccc(OC)cc21` [Compound 392], the IC50 is over 2000 nM.
For the compound `CCn1c(-c2ccc(N)cc2)c(C#N)c2cc(Cl)ccc21` [Compound 393], the IC50 lay in the range of 500 to 2000 nM.
Turning to `CCn1c(-c2ccc(NS(C)(=O)=O)cc2)c(C#N)c2cc(Cl)ccc21` [Compound 394], the IC50 was under 500 nM.
With `CCn1c(-c2cccc(NC(=O)NCCCl)c2)c(C#N)c2ccc(OC)cc21` [Compound 395], the IC50 was in the range of 500 to 2000 nM.
For `CCn1c(-c2cccc(NC(=O)NCCCCl)c2)c(C#N)c2ccc(OC)cc21` [Compound 400], the IC50 was in the range of 500 to 2000 nM.
With `CCn1c(-c2cccc(NC(=O)NCCc3ccccc3)c2)c(C#N)c2ccc(OC)cc21` [Compound 402], the IC50 was 500 to 2000 nM.
On to `CCn1c(-c2cccc(NC(=O)Nc3ccc(C)cc3)c2)c(C#N)c2ccc(OC)cc21` [Compound 404], for which the IC50 was over 2000 nM.
The same measure, in the same setting: the result for `CCOC(=O)c1ccc(NC(=O)Nc2cccc(-c3c(C#N)c4ccc(OC)cc4n3CC)c2)cc1` [Compound 407] reads 500 to 2000 nM; that for `COc1ccc2c(C#N)c(-c3ccc(NS(C)(=O)=O)cc3)n(CC(C)C)c2c1` [Compound 409], 500 to 2000 nM; that for `CCOc1ccc2cc(-c3ccc(NS(C)(=O)=O)cc3)n(CC)c2c1` [Compound 410], 500 to 2000 nM.
